Read-outs that look alike come from different tables or passages of the source. Each block holds one compound with its values, some of them ahead of it.
Experiments:
[1] = test system: T. cruzi intracellular amastigotes; test: Image-based assay of the number of T. cruzi infected cells (intracellular amastigotes in 3T3 host cells); format: cell-based, Trypanosoma cruzi; conditions: for T. cruzi Wash off IC50 value: compound wash off, further 72 hours without compound; for inhibition at 183 µM: read-out: inhibition of T. cruzi growth at highest test concentration
Procedure: (§1) Parasites and host cells were maintained as outlined previously. Briefly, host 3T3 fibroblasts (ATCC, CCL-92) were grown in RPMI medium (Thermo Fisher Scientific, USA) with no phenol red, supplemented with 10% FBS (Thermo Fisher Scientific, USA) and incubated at 37°C in 5% CO2. Host cells were harvested at 70% confluency and were split every 2–3 days in 175 cm^2 flasks. 3T3 cells were cultured up to passage 7 as contact inhibition was reduced or lost at higher passages. Prior to infection with T. cruzi trypomastigotes, host cells were seeded at 1.2 x 10^6 cells in 75 cm^2 or 4 x 10^5 cells in 25 cm^2 flasks and grown for 24 hours before parasite addition. Parasites were added at a multiplicity of infection (MOI) of 10:1 and incubated for 24 hours before non-infected trypomastigotes were washed off the host cell bed with PBS supplemented with Ca^2+ and Mg^2+ (Thermo Fisher Scientific, USA). Incubation was continued for a further 3 days, until tissue culture trypomastigotes began to egress from host cells. Egressed parasites were used for assays or to continue the infective life cycle in vitro.
(§2) The activity of the nucleoside analogues against T. cruzi intracellular amastigotes following 24, 48 hours exposure and compound wash off, was determined using image-based techniques as previously described. Briefly, 14-point serial dilutions of the compounds in 100% DMSO were prepared and then further diluted in sterile water at a ratio of 1:21 compound: water. Five microliters of the diluted compounds were added to wells of T. cruzi infected host cells, using a MiniTrak compound handling device (Perkin Elmer, USA) with final concentrations in the plate ranging from 183 μM to 4.6 x 10^−4 μM. All experiments were performed with two separate biological replicates.
IC50 values for inhibitory activity of both the nucleoside analogues tested as DNA probes and known inhibitors tested to determine their effect on replication of T. cruzi were calculated in GraphPad Prism 5, using sigmoidal dose response with variable slope. […] The p-value for difference in the % activity at Emax concentrations for compounds with known activity (EdU identified parasites, compared to Hoechst identified parasites) against T. cruzi was determined using GraphPad Prism 5, using an unpaired student’s t-test. […] The Emax for each compound was at least two data points in from the beginning of the plateau of activity in the IC50 curve, as previously described.

[2] = test system: T. cruzi intracellular amastigotes; test: Detection of T. cruzi replication following exposure to inhibitors (EdU incorporation vs Hoechst); format: cell-based, Trypanosoma cruzi; conditions: for IC50: 48 hours exposure, mean ± SD
Procedure: The addition of host cells, parasites and compounds were as described for the T. cruzi image based method previously reported. […] Addition of nuclear and cytoplasmic dyes was undertaken as previously reported and images captured on an Opera confocal image-based system at 20x magnification. Image analysis was performed with a script developed in Columbus software (CHEMICAL LABEL INCORPORATION SCRIPT). Control wells were also imaged at an increased, 60x magnification to show the distribution of staining and the structure of the parasites within host cells. Eight background control wells consisted of infected host cells, fixed and exposed to Hoechst and the click chemistry cocktail, without the addition of the chemical probe EdU. […] All images taken were not modified and were taken on an Opera, confocal image-based reader.

3T3 cells = test: Image-based assay, effect on 3T3 host cells; format: cell-based; conditions: 48 h, highest test concentration 183 μM
Procedure: as §1
as §2, with “The activity of the nucleoside analogues against T. cruzi intracellular amastigotes following 24, 48 hours exposure and compound wash off, was determined using image-based techniques as previously described.” left out
Image analysis was performed with a script developed in Columbus software (CHEMICAL LABEL INCORPORATION SCRIPT). Control wells were also imaged at an increased, 60x magnification to show the distribution of staining and the structure of the parasites within host cells. Eight background control wells consisted of infected host cells, fixed and exposed to Hoechst and the click chemistry cocktail, without the addition of the chemical probe EdU. […] The percentage activity of compounds against parasite number / infected cells (identified with Hoechst) was calculated against a positive control of 12 μM of NFX for the parasite and 30 μM of PURO the host cells; and a negative control of 0.47% DMSO. All images taken were not modified and were taken on an Opera, confocal image-based reader.

HEK293 cells = test: Redox-based assay to assess HEK293 viability; format: cell-based, human; conditions: 48 hours exposure, highest test concentration 87 μM, EdU value estimated, relative to Emax plateau of 57%
Procedure: To determine the effect of the nucleoside analogues against a replicating mammalian cell line, analogues were tested against HEK293 cells, utilising a REDOX-based metabolic assay to assess cell viability as previously described. […] Experiments were performed over two biological replicates.

T. cruzi amastigote DNA = test: Incorporation of pyrimidine nucleoside analogues into T. cruzi amastigote DNA (click chemistry, colocalisation with Hoechst); format: cell-based, Trypanosoma cruzi; conditions: for incorporation (no incorporation observed): concentrations up to a maximum of 73 μM
Procedure: T. cruzi infected 3T3 fibroblasts were initially exposed to nucleoside analogues for 48 hours at concentrations ranging from 73 μM to 1.8 x10^-4 μM. Host cell, parasite and compound additions were carried out as previously described. Cells were then stained using a click chemistry azide cocktail, followed by Hoechst to identify nuclear material, as previously reported. The freshly prepared azide cocktail consisted of a final concentration of 5 μM of Alexa Fluor 488 azide (Thermo Fisher Scientific, USA), 1 mM copper sulfate (Sigma Aldrich, USA) and 100 mM sodium ascorbate (Sigma Aldrich, USA), in DPBS. Wells were imaged on an Opera image-based reader (Perkin Elmer, USA) at 20x magnification with 405 nm (defined as Hoechst channel) and 488 nm (defined as Alexa 488 channel) lasers using filter sets/bandwidth (emission) of 450/50 nm and 540/75 nm, respectively. To determine nucleoside analogue incorporation into T. cruzi amastigote DNA, a script was developed utilising the Columbus (PerkinElmer, USA) image-based analysis and data handling platform (CHEMICAL LABEL INCORPORATION SCRIPT). Nucleoside analogues were also tested for DNA incorporation following 2, 4 and 24 hours exposure, at the same concentrations. All experiments were performed in duplicate. The colocalisation of nucleoside analogues and Hoechst (replicating parasites) at each time point (48, 4 and 2 hours) was compared using GraphPad Prism 5.
A CHEMICAL LABEL INCORPORATION SCRIPT developed in Columbus firstly identified Hoechst stained parasites within host cells by spot analysis, utilizing the same building block analysis as we had previously developed to determine T. cruzi infected cells. The physical definition of amastigote DNA was identified by Hoechst, with the only modification being that as there was no cytoplasmic marker, thus segmentation borders in the Hoechst channel were applied, which effectively separated host cells (Fig 2). Further building blocks were added to calculate the intensity of Alexa Fluor 488 within the spots identified by Hoechst, in infected cells. This script was first applied to images to determine the mean fluorescence intensity in the Alexa 488 channel of Hoechst identified parasites, without the addition of the chemical label. The mean plus three times the standard deviation of this intensity was used to define values above background, thus the minimum intensity above background required to identify parasite DNA which successfully incorporated the chemical label. An input box was incorporated into the script, in which this minimum intensity above background was entered. Parameters of the developed script, “CHEMICAL LABEL INCORPORATION” are shown in S1 Table.
• Number of T. cruzi amastigote infected cells (≥5 parasites per cell, identified with Hoechst). • Number of Hoechst identified T. cruzi parasites (in infected cells). • Number of parasites incorporating chemical label (T. cruzi parasites with Alexa 488 intensity above background, in infected cells). • % chemical label incorporation. Alexa 488 spots in infected cells (above background) NO / Hoechst spots in infected cells NO *100 = Percentage colocalisation; where NO = number of objects. • Number of host cells.

[3] = Trypanosoma cruzi, 48 hours exposure, well-established intracellular infection assay, mean ± SD, POSA value based on sub-optimal effect (Emax 75%), read-out: IC50 value Infected cells (Hoechst)
[4] = Trypanosoma cruzi, then 0.37 μM EdU for 4 hours, number of EdU incorporating parasites, read-out: IC50 value Amastigotes (EdU)
[5] = Trypanosoma cruzi, number of Hoechst identified parasites in infected cells, read-out: IC50 value Amastigotes (Hoechst)
[6] = 24 hours exposure, highest test concentration 183 μM
[7] = 48 hours incubation, highest test concentration 183 μM
[8] = Trypanosoma cruzi, 48 h, 48 hours incubation

IC50 [2, 4]: 1.29 ± 0.25 µM
IC50 [2, 5]: 2.8 ± 0.94 µM
Compound: O=C(Cn1ccnc1[N+](=O)[O-])NCc1ccccc1 [BZ, benznidazole]
IC50 [1, 3]: 6.7 ± 0.64 µM
inhibition at 127 µM ([2]; Trypanosoma cruzi, 2 h, read-out: mean inhibition of incorporation of EdU into the parasite DNA): 72 ± 8.7%

Compound: C#Cc1cn([C@@H]2O[C@H](CO)[C@@H](O)[C@@H]2Br)c(=O)[nH]c1=O [Br-ara-EdU, (2′S)-2′-bromo-2′-deoxy-5-ethynyl-uridine]
T. cruzi 24 IC50 value [1, 6]: NA (NA = ≤50% activity at the highest concentration tested and an IC50 value could not be determined)
T. cruzi Wash off IC50 value [1, 7]: NA (NA = ≤50% activity at the highest concentration tested and an IC50 value could not be determined)
T. cruzi 48 IC50 value [1, 7]: NA (NA = ≤50% activity at the highest concentration tested and an IC50 value could not be determined)
inhibition at 183 µM [1, 8]: ≤ 50%
Host cell 3T3 IC50 value 48 h (3T3 cells): NA (NA = ≤50% activity at the highest concentration tested and an IC50 value could not be determined)
HEK293 IC50 value (HEK293 cells): NA (NA = ≤50% activity at the highest concentration tested and an IC50 value could not be determined)
incorporation into T. cruzi DNA following 48 hours incubation (in words) (T. cruzi amastigote DNA): did not
incorporation (no incorporation observed) (T. cruzi amastigote DNA; 48 hours): < 20%

Compound: C#Cc1cn([C@@H]2O[C@H](CO)[C@@H](O)[C@@H]2Cl)c(=O)[nH]c1=O [Cl-ara-EdU, (2′S)-chloro-2′-deoxy-5-ethynyl-uridine]
T. cruzi 24 IC50 value [1, 6]: NA (NA = ≤50% activity at the highest concentration tested and an IC50 value could not be determined)
T. cruzi Wash off IC50 value [1, 7]: NA (NA = ≤50% activity at the highest concentration tested and an IC50 value could not be determined)
T. cruzi 48 IC50 value [1, 7]: NA (NA = ≤50% activity at the highest concentration tested and an IC50 value could not be determined)
inhibition at 183 µM [1, 8]: ≤ 50%
Host cell 3T3 IC50 value 48 h (3T3 cells): NA (NA = ≤50% activity at the highest concentration tested and an IC50 value could not be determined)
HEK293 IC50 value (HEK293 cells): NA (NA = ≤50% activity at the highest concentration tested and an IC50 value could not be determined)
incorporation into T. cruzi DNA following 48 hours incubation (in words) (T. cruzi amastigote DNA): did not
incorporation (no incorporation observed) (T. cruzi amastigote DNA; 48 hours): < 20%

Compound: C#Cc1cn([C@@H]2O[C@H](CO)[C@@H](O)[C@@H]2F)c(=O)[nH]c1=O [F-ara-EdU, (2S′)-2′-deoxy-2′-fluoro-5-ethynyl-uridine]
T. cruzi 24 IC50 value [1, 6]: NA (NA = ≤50% activity at the highest concentration tested and an IC50 value could not be determined)
T. cruzi Wash off IC50 value [1, 7]: NA (NA = ≤50% activity at the highest concentration tested and an IC50 value could not be determined)
T. cruzi 48 IC50 value [1, 7]: NA^3 (NA = ≤50% activity at the highest concentration tested and an IC50 value could not be determined)
inhibition at 73 µM ([1]; Trypanosoma cruzi, 48 h, 73 μM, 48 hours incubation, read-out: inhibition / activity against T. cruzi amastigotes at 73 μM): < 50%
inhibition at 183 µM [1, 8]: ≤ 50%
Host cell 3T3 IC50 value 48 h (3T3 cells): NA (NA = ≤50% activity at the highest concentration tested and an IC50 value could not be determined)
HEK293 IC50 value (HEK293 cells): NA (NA = ≤50% activity at the highest concentration tested and an IC50 value could not be determined)
incorporation into parasite DNA following 2 hours exposure (T. cruzi amastigote DNA; 2 hours exposure): No incorporation
% of T. cruzi parasites with incorporation (T. cruzi amastigote DNA; 4 hours, 73 μM): 36 ± 7.3%
incorporation into T. cruzi DNA following 48 hours incubation (in words) (T. cruzi amastigote DNA): incorporated
% of parasites with analogue incorporated (T. cruzi amastigote DNA; 48 hours, top concentration 73 μM): 91 ± 0.23%

IC50 [2, 4]: 0.0038 ± 0.001 µM
IC50 [2, 5]: 0.0038 ± 0.001 µM
Compound: CC[C@@H]([C@H](C)O)n1ncn(-c2ccc(N3CCN(c4ccc(OC[C@@H]5CO[C@@](Cn6cncn6)(c6ccc(F)cc6F)C5)cc4)CC3)cc2)c1=O [POSA, posaconazole]
IC50 [1, 3]: 0.004 ± 0.0082 µM
Emax ([1]; Trypanosoma cruzi, 48 hours, infected cells (Hoechst), read-out: maximum activity (Emax) against T. cruzi): 75%
inhibition of EdU incorporation ([2]; 2 hours exposure, 1 μM (250 x the IC50 value), then 1.83 μM EdU 2 hours): no inhibition

Compound: COc1ccc(C[C@H](N)C(=O)N[C@H]2[C@@H](O)[C@H](n3cnc4c(N(C)C)ncnc43)O[C@@H]2CO)cc1 [PURO, puromycin]
IC50 ([1]; Trypanosoma cruzi, 24 hours exposure, highest test concentration 183 μM, read-out: T. cruzi 24 IC50 value): 7.6 ± 1.2 µM
Emax ([1]; Trypanosoma cruzi, 24 hours exposure, read-out: T. cruzi 24 relative Emax (in brackets) (converted)): 92%
IC50 ([1]; Trypanosoma cruzi, 48 hours incubation, highest test concentration 183 μM, read-out: T. cruzi 48 IC50 value): 2.36 ± 0.78 µM
Emax ([1]; Trypanosoma cruzi, 48 hours incubation, read-out: T. cruzi 48 relative Emax (in brackets) (converted)): 100%
IC50 (3T3 cells; Mus musculus, NIH3T3, read-out: Host cell 3T3 IC50 value 48 h): 4.4 ± 0.8 µM
IC50 (HEK293 cells; Homo sapiens, HEK293): 0.41 ± 0.17 µM
